Experimental data: patent US20230085307A1, “PYRIDAZINONE COMPOUND AND HERBICIDE” (NISSAN CHEMICAL CORPORATION, priority 2019, published 2023)

Tests used:
Italian ryegrass [1] = assay: Test Example 4: herbicidal effect by soil treatment (Table 19, symbol K); format: in vivo, Italian ryegrass (Lolium multiflorum)
Method in brief: (§1)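 Soil-surface application: an emulsion agent diluted with water to the predetermined dose is sprayed uniformly over seeds lying under roughly 1.5 cm of sterilized diluvial soil. Boxes stay in a greenhouse at 25° C. to 30° C. Three weeks later, each species is graded on previously defined criteria.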

Japanese bulrush = assay: Test Example 2: herbicidal activity, application during weed generation under submerged conditions (Table 17, symbol B); format: in vivo, Japanese bulrush (Schoenoplectus juncoides); settings: for herbicidal effect rating, B: Japanese bulrush: application during weed generation, submerged conditions
Method in brief: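 3-wk visual-criteria score after one water-surface dose. Emulsion formulation, water-diluted to set rate; applied at 1–2 leaf stage; alluvial soil, 4 cm standing water; seeds co-sown; greenhouse 25–30° C.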

green foxtail = assay: Test Example 4: herbicidal effect by soil treatment (Table 19, symbol G); format: in vivo, green foxtail (Setaria viridis)
Method in brief: as §1

oval-leafed pondweed = assay: Test Example 1: herbicidal activity, application before weed generation under submerged conditions (Table 16, symbol C); format: in vivo, oval-leafed pondweed (Monochoria vaginalis)
Method in brief: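 Alluvial soil was flooded to 4 cm depth, weed seeds were sown mixed and 2.5-leaf rice seedlings were transplanted. On sowing day, the compound's emulsion, diluted in water to a set dose, was applied to the water surface. Plants grew at 25–30 °C and were scored 0–5 after three weeks.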

velvetleaf [2] = assay: Test Example 5: herbicidal effect by foliage application, plastic box (Table 20, symbol M); format: in vivo, velvetleaf (Abutilon theophrasti); settings: foliage application; for M: velvetleaf, herbicidal effect grade: three weeks after application
Method in brief: (§2)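 Sow seeds spot-wise in sterilized diluvial soil; cover with ~1.5 cm soil. Grow 14 days in greenhouse, 25° C. to 30° C. Spray foliage with emulsion diluted to predetermined amount. Rate effect after 3 weeks.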

blackgrass = assay: Test Example 5: herbicidal effect by foliage application, plastic box (Table 20, symbol J); format: in vivo, blackgrass (Alopecurus myosuroides); settings: foliage application; for J: blackgrass, herbicidal effect grade: three weeks after application
Method in brief: as §2

redroot pigweed = assay: Test Example 4: herbicidal effect by soil treatment (Table 19, symbol N); format: in vivo, redroot pigweed (Amaranthus retroflexus)
Method in brief: as §1

windgrass = assay: Test Example 4: herbicidal effect by soil treatment (Table 19, symbol L); format: in vivo, windgrass (Apera spica-venti)
Method in brief: as §1

velvetleaf [3] = assay: Test Example 4: herbicidal effect by soil treatment (Table 19, symbol M); format: in vivo, velvetleaf (Abutilon theophrasti)
Method in brief: as §1

persian speedwell = assay: Test Example 4: herbicidal effect by soil treatment (Table 19, symbol R); format: in vivo, Persian speedwell (Veronica persica)
Method in brief: as §1

chickweed = assay: Test Example 5: herbicidal effect by foliage application, plastic box (Table 20, symbol P); format: in vivo, common chickweed (Stellaria media); settings: foliage application; for P: chickweed, herbicidal effect grade: three weeks after application
Method in brief: as §2

Italian ryegrass [4] = assay: Test Example 5: herbicidal effect by foliage application, plastic box (Table 20, symbol K); format: in vivo, Italian ryegrass (Lolium multiflorum); settings: foliage application; for K: Italian ryegrass, herbicidal effect grade: three weeks after application
Method in brief: as §2

rice flat sedge = assay: Test Example 3: herbicidal effect by foliage application, Wagner pot (Table 18, symbol E); format: in vivo, rice flat sedge (Cyperus iria)
Method in brief: (§3)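 Plants were sown in alluvial soil held under 0.1–0.5 cm standing water and grown 14 days in a greenhouse at 25–30 °C. An emulsifiable formulation, water-diluted to the set dose, was then sprayed onto the foliage, and effects were scored three weeks later using previously defined criteria.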

Chinese sprangletop = assay: Test Example 3: herbicidal effect by foliage application, Wagner pot (Table 18, symbol D); format: in vivo, chinese sprangletop (Leptochloa chinensis)
Method in brief: as §3

barnyard grass = assay: Test Example 5: herbicidal effect by foliage application, plastic box (Table 20, symbol H); format: in vivo, barnyard grass (Echinochloa crus-galli); settings: foliage application; for H: barnyard grass, herbicidal effect grade: three weeks after application
Method in brief: as §2

wild oat = assay: Test Example 4: herbicidal effect by soil treatment (Table 19, symbol I); format: in vivo, wild oat (Avena fatua)
Method in brief: as §1

lambsquarters = assay: Test Example 4: herbicidal effect by soil treatment (Table 19, symbol O); format: in vivo, lambsquarters (Chenopodium album)
Method in brief: as §1

[5] = amount of applied herbicide 320 g/ha
[6] = 320 g/ha, evaluated 3 weeks after application
[7] = amount of applied herbicide 214 g/ha

Row | SMILES | K: Italian ryegrass, herbicidal effect grade (Italian ryegrass [1]; [5]) | G: green foxtail, herbicidal effect grade (green foxtail; [5]) | Herbicidal effect, C: oval-leafed pondweed (oval-leafed pondweed; [5]) | N: redroot pigweed, herbicidal effect grade (redroot pigweed; [5]) | L: windgrass, herbicidal effect grade (windgrass; [5]) | M: velvetleaf, herbicidal effect grade (velvetleaf [3]; [5]) | R: persian speedwell, herbicidal effect grade (persian speedwell; [5]) | I: wild oat, herbicidal effect grade (wild oat; [5]) | O: lambsquarters, herbicidal effect grade (lambsquarters; [5]) | herbicidal effect rating, B: Japanese bulrush (Japanese bulrush; AAH 320 g/ha) | M: velvetleaf, herbicidal effect grade (velvetleaf [2]; 320 g/ha) | J: blackgrass, herbicidal effect grade (blackgrass; 320 g/ha) | P: chickweed, herbicidal effect grade (chickweed; 320 g/ha) | K: Italian ryegrass, herbicidal effect grade (Italian ryegrass [4]; 320 g/ha) | herbicidal effect on rice flat sedge (E) (rice flat sedge; 320 g/ha) | herbicidal effect on Chinese sprangletop (D) (Chinese sprangletop; 320 g/ha) | H: barnyard grass, herbicidal effect grade (barnyard grass; 320 g/ha) | further results
1 | CCCC(=O)Oc1c(C)nn(C)c(=O)c1-c1c(-c2ccc(COC)cc2)oc2ccc(C)cc12 [9-062] | 5 (Herbicidal rate of 90% or more (almost completely withered)) | 5 (Herbicidal rate of 90% or more (almost completely withered)) | 5 (Herbicidal rate of 90% or more (almost completely withered)) | 5 (Herbicidal rate of 90% or more (almost completely withered)) | 0 (Herbicidal rate of 5% or less (almost no effect)) | 5 (Herbicidal rate of 90% or more (almost completely withered)) | 5 (Herbicidal rate of 90% or more (almost completely withered)) | 0 (Herbicidal rate of 5% or less (almost no effect)) | 4 (Herbicidal rate of 70% or more and less than 90%) |  |  |  |  |  |  |  |  | herbicidal effect grade, B: Japanese bulrush (Japanese bulrush; application during weed generation under submerged conditions, amount of applied herbicide 320 g/ha): 3 (Herbicidal rate of 40% or more and less than 70%); M (velvetleaf) herbicidal effect grade (velvetleaf [2]; [6]): 5 (Herbicidal rate of 90% or more (almost completely withered)); J (blackgrass) herbicidal effect grade (blackgrass; [6]): 4 (Herbicidal rate of 70% or more and less than 90%); P (chickweed) herbicidal effect grade (chickweed; [6]): 5 (Herbicidal rate of 90% or more (almost completely withered)); K (Italian ryegrass) herbicidal effect grade (Italian ryegrass [4]; [6]): 5 (Herbicidal rate of 90% or more (almost completely withered)); Herbicidal effect on E (rice flat sedge), foliage application (rice flat sedge; [5]): 5 (Herbicidal rate of 90% or more (almost completely withered)); Herbicidal effect on D (Chinese sprangletop), foliage application (Chinese sprangletop; [5]): 3 (Herbicidal rate of 40% or more and less than 70%); H (barnyard grass) herbicidal effect grade (barnyard grass; [6]): 4 (Herbicidal rate of 70% or more and less than 90%)
2 | COc1ccc2c(-c3c(O)c(C)nn(C)c3=O)c(-c3ccccc3OC)sc2c1 [Compound No. 3-065, 5-hydroxy-4-(6-methoxy-2-(2-methoxyphenyl)benzo[b]thiophen-3-yl)-2,6-dimethylpyridazin-3(2H)-one] |  |  |  |  |  |  |  |  |  |  |  |  |  |  |  |  |  | K: Italian ryegrass, herbicidal effect grade (Italian ryegrass [1]; [7]): 3 (Herbicidal rate of 40% or more and less than 70%); herbicidal effect rating, B: Japanese bulrush (Japanese bulrush; AAH 214 g/ha): 1 (Herbicidal rate of 5% or more and less than 20%); G: green foxtail, herbicidal effect grade (green foxtail; [7]): 5 (Herbicidal rate of 90% or more (almost completely withered)); Herbicidal effect, C: oval-leafed pondweed (oval-leafed pondweed; [7]): 3 (Herbicidal rate of 40% or more and less than 70%); M: velvetleaf, herbicidal effect grade (velvetleaf [2]; 214 g/ha): 5 (Herbicidal rate of 90% or more (almost completely withered)); J: blackgrass, herbicidal effect grade (blackgrass; 214 g/ha): 5 (Herbicidal rate of 90% or more (almost completely withered)); N: redroot pigweed, herbicidal effect grade (redroot pigweed; [7]): 4 (Herbicidal rate of 70% or more and less than 90%); L: windgrass, herbicidal effect grade (windgrass; [7]): 3 (Herbicidal rate of 40% or more and less than 70%); M: velvetleaf, herbicidal effect grade (velvetleaf [3]; [7]): 0 (Herbicidal rate of 5% or less (almost no effect)); R: persian speedwell, herbicidal effect grade (persian speedwell; [7]): 5 (Herbicidal rate of 90% or more (almost completely withered)); P: chickweed, herbicidal effect grade (chickweed; 214 g/ha): 5 (Herbicidal rate of 90% or more (almost completely withered)); K: Italian ryegrass, herbicidal effect grade (Italian ryegrass [4]; 214 g/ha): 4 (Herbicidal rate of 70% or more and less than 90%); herbicidal effect on rice flat sedge (E) (rice flat sedge; 214 g/ha): 5 (Herbicidal rate of 90% or more (almost completely withered)); herbicidal effect on Chinese sprangletop (D) (Chinese sprangletop; 214 g/ha): 2 (Herbicidal rate of 20% or more and less than 40%); H: barnyard grass, herbicidal effect grade (barnyard grass; 214 g/ha): 5 (Herbicidal rate of 90% or more (almost completely withered)); I: wild oat, herbicidal effect grade (wild oat; [7]): 2 (Herbicidal rate of 20% or more and less than 40%); O: lambsquarters, herbicidal effect grade (lambsquarters; [7]): 4 (Herbicidal rate of 70% or more and less than 90%)
3 | COc1ccc2c(-c3c(O)c(Cl)nn(C)c3=O)c(-c3ccccc3OC)sc2c1 [Compound No. 3-088, 6-chloro-5-hydroxy-4-(6-methoxy-2-(2-methoxyphenyl)benzo[b]thiophen-3-yl)-2-methylpyridazin-3(2H)-one] | 0 (Herbicidal rate of 5% or less (almost no effect)) | 5 (Herbicidal rate of 90% or more (almost completely withered)) | 5 (Herbicidal rate of 90% or more (almost completely withered)) | 5 (Herbicidal rate of 90% or more (almost completely withered)) | 0 (Herbicidal rate of 5% or less (almost no effect)) | 5 (Herbicidal rate of 90% or more (almost completely withered)) | 4 (Herbicidal rate of 70% or more and less than 90%) | 0 (Herbicidal rate of 5% or less (almost no effect)) | 5 (Herbicidal rate of 90% or more (almost completely withered)) | 3 (Herbicidal rate of 40% or more and less than 70%) | 4 (Herbicidal rate of 70% or more and less than 90%) | 3 (Herbicidal rate of 40% or more and less than 70%) | 5 (Herbicidal rate of 90% or more (almost completely withered)) | 0 (Herbicidal rate of 5% or less (almost no effect)) | 5 (Herbicidal rate of 90% or more (almost completely withered)) | 4 (Herbicidal rate of 70% or more and less than 90%) | 4 (Herbicidal rate of 70% or more and less than 90%) | 
4 | COc1ccccc1-c1sc2cc(OCC(F)(F)F)ccc2c1-c1c(O)c(C)nn(C)c1=O [Compound No. 3-116, 5-hydroxy-4-(2-(2-methoxyphenyl)-6-(2,2,2-trifluoroethoxy)benzo[b]thiophen-3-yl)-2,6-di methylpyridazin-3 (2H)-one] | 5 (Herbicidal rate of 90% or more (almost completely withered)) | 5 (Herbicidal rate of 90% or more (almost completely withered)) | 5 (Herbicidal rate of 90% or more (almost completely withered)) | 5 (Herbicidal rate of 90% or more (almost completely withered)) | 4 (Herbicidal rate of 70% or more and less than 90%) | 4 (Herbicidal rate of 70% or more and less than 90%) | 5 (Herbicidal rate of 90% or more (almost completely withered)) | 3 (Herbicidal rate of 40% or more and less than 70%) | 5 (Herbicidal rate of 90% or more (almost completely withered)) | 3 (Herbicidal rate of 40% or more and less than 70%) | 5 (Herbicidal rate of 90% or more (almost completely withered)) | 5 (Herbicidal rate of 90% or more (almost completely withered)) | 5 (Herbicidal rate of 90% or more (almost completely withered)) | 5 (Herbicidal rate of 90% or more (almost completely withered)) | 5 (Herbicidal rate of 90% or more (almost completely withered)) | 5 (Herbicidal rate of 90% or more (almost completely withered)) | 5 (Herbicidal rate of 90% or more (almost completely withered)) | 
